Data as given in patent US20230151003A1, “COMPOUNDS AND METHODS OF USE” (Exelixis, Inc., priority 2020, published 2023).

Tests used:
Format in all cases: biochemical
Human AXL = molecular target: T1, Human AXL (Homo sapiens, UniProt P30530); assay: Human AXL kinase assay (HTRF KinEase); conditions: Table 2 Biological Activities, ATP at Km (1.0 μM)
T1 construct: Human AXL (residues 464-885; CarnaBio, 1 ng/ well); purchased CarnaBio
T1 sequence (P30530 464-885 isoform P30530-2): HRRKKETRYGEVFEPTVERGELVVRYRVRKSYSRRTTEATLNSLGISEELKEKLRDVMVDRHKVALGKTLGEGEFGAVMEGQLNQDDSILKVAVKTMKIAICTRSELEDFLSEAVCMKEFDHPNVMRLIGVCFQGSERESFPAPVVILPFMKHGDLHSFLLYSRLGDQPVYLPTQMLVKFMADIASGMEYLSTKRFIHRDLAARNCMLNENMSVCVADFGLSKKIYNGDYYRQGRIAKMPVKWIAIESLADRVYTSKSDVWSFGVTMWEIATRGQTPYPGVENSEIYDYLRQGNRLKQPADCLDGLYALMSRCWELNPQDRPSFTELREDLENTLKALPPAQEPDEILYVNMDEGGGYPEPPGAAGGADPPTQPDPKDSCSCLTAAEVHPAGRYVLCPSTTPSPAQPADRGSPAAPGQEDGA
Protocol: (§1) Kinase activity and compound inhibition were investigated using the HTRF® KinEase assay (Cisbio Cat #62TKOPEB) per manufacturer's instructions. In short, compounds were delivered in 300 nL volumes at 10 different concentrations in DMSO (3% final) to empty 384-well assay plates (Corning cat #3824). A mixture of enzyme, 1 μM biotynlated peptide substrate, and buffer in 10 μL volume was added. The assay was started upon the addition of ATP (at Km). The 10 μL reaction was incubated at room temperature. The reaction was stopped upon the addition of detection buffer containing streptavidin-XL665 (5 μL) and TK antibody-Eu3+ (5 μL). After a 60 min incubation at room temperature, the fluorescence at 665 nm and 620 nm was read on an Envision microplate reader (Perkin Elmer). Kinase activity normalized to DMSO (100% activity) and reference compound at 1 μM and (0% activity) was calculated using the fluorescence ratio […]. IC50 values were calculated by nonlinear regression analysis using a 4-parameter logistic curve fit in ActivityBase XE (IDBS).
Human AXL (residues 464-885; CarnaBio, 1 ng/ well) was incubated with enzymatic buffer (Cisbio) supplemented with 5 mM MgCl2, 1 mM DTT, and Supplemental Enzymatic Buffer (SEB; Cisbio). The mixture was added to the pre-plated compounds. The reaction was initiated upon addition of ATP at Km (1.0 μM). The reaction was incubated at room temperature for 50 min and stopped upon the addition of SA-XL665 and TK-antibody both diluted in EDTA-containing kinase detection buffer (Cisbio). The kinase activity was calculated as stated above and the IC50 values were reported.

KDR = KDR (Homo sapiens, UniProt P35968); assay: Human KDR kinase assay (HTRF KinEase); set-up: Human KDR (residues 790-1356; CarnaBio, 0.1 ng/ well); purchased CarnaBio; conditions: Table 2 Biological Activities, ATP at Km (4.0 μM)
Protocol: as §1
(§2) Human KDR (residues 790-1356; CarnaBio, 0.1 ng/ well) was incubated with enzymatic buffer (Cisbio) supplemented with 5 mM MgCl2, 1 mM MnCl2, and 1 mM DTT. The mixture was added to the pre-plated compounds. The reaction was initiated upon addition of ATP at Km (4.0 μM). The reaction was incubated at room temperature for 40 min and stopped upon the addition of SA-XL665 and TK-antibody both diluted in EDTA-containing kinase detection buffer (Cisbio). The kinase activity was calculated as stated above and the IC50 values were reported.

Met = Met (Homo sapiens, UniProt P08581); assay: Human MET kinase assay (HTRF KinEase); set-up: Human MET (residues 956-1390; CarnaBio, 0.1 ng/ well); purchased CarnaBio; conditions: Table 2 Biological Activities, ATP at Km (3.0 μM), read-out: c-Met IC50
Protocol: as §1
as §2, with “MET” for “KDR”, “956-1390;” for “790-1356;”, “DTT” for “MnCl2,”, “MnCl2.” for “DTT.”, “(3.0” for “(4.0”

Human MER = molecular target: T2, Human MER (Homo sapiens, UniProt Q12866); assay: Human MER kinase assay (HTRF KinEase); conditions: Table 2 Biological Activities, ATP at Km (40 μM)
T2 construct: Human MER (residues 528-999; CarnaBio, 1 ng/ well); purchased CarnaBio
T2 sequence (Q12866 528-999): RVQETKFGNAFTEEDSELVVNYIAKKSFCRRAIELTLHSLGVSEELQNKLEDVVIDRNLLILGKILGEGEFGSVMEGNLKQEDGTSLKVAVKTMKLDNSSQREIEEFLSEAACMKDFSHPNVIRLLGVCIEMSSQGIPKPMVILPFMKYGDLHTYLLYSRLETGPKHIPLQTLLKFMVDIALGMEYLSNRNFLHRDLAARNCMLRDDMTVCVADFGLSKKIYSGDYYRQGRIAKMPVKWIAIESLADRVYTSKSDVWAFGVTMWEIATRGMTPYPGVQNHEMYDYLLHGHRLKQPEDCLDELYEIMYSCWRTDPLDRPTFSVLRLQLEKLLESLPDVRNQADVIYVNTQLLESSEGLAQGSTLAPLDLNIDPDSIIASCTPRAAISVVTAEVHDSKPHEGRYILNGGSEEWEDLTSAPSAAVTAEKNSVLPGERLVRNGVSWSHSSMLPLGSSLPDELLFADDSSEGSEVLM
Protocol: as §1
as §2, with “MER” for “KDR”, “528-999;” for “790-1356;”, “1” for “0.1”, “MgCl2” for “MgCl2, 1 mM MnCl2,”, “(40” for “(4.0”, “60” for “40”

KDR, sequence (P35968 790-1356): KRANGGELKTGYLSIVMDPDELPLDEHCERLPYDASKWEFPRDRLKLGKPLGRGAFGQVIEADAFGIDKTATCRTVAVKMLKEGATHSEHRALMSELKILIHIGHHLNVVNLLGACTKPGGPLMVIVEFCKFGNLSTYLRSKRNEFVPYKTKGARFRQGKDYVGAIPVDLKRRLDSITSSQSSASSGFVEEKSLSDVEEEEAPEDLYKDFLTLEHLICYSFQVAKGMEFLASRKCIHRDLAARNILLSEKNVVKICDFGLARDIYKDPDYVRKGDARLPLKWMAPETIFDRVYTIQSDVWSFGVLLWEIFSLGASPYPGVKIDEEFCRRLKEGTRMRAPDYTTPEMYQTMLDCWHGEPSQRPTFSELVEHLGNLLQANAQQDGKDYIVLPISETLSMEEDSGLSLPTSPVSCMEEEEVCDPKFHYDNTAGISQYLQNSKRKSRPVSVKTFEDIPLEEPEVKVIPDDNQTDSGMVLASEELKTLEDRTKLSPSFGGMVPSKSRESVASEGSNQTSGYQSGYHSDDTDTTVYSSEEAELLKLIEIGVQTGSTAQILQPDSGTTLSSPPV
Met, sequence (P08581 956-1390): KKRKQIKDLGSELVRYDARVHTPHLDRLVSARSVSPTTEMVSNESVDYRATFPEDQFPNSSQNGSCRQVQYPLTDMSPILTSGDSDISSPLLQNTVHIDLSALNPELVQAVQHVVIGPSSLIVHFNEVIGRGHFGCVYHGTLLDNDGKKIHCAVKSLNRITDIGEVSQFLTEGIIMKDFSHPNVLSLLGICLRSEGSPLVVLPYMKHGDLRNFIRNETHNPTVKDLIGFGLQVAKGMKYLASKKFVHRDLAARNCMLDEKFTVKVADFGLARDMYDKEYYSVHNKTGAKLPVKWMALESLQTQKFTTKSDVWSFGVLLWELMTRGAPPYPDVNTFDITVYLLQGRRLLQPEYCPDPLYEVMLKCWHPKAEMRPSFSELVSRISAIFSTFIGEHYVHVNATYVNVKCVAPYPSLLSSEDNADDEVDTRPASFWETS

SMILES	IC50 (Human AXL) [nM]	IC50 (KDR) [nM]	IC50 (Met) [nM]	IC50 (Human MER) [nM]
COc1cc2nccc(Oc3ccc(NC(=O)c4ccc(C)n(-c5ccc(F)cn5)c4=O)cc3F)c2nc1OC [Compound 43, N-[4-[(6,7-Dimethoxy-1,5-naphthyridin-4-yl)oxy]-3-fluorophenyl]-1-(5-fluoropyridin-2-yl)-6-methyl-2-oxopyridine-3-carboxamide]	≤ 100	≤ 100	≤ 100	≤ 100
COc1ccc2nccc(Oc3ccc(NC(=O)c4ccc(C)n(-c5ccc(F)cn5)c4=O)cc3F)c2n1 [Compound 47, N-[3-Fluoro-4-[(6-methoxy-1,5-naphthyridin-4-yl)oxy]phenyl]-1-(5-fluoropyridin-2-yl)-6-methyl-2-oxopyridine-3-carboxamide]	≤ 100	300 to 1000	100 to 300	≤ 100
COc1cc2nccc(Oc3ccc(NC(=O)c4c(C)ncc(-c5ccccn5)c4O)cc3F)c2nc1OC [Compound 69, N-[4-[(6,7-Dimethoxy-1,5-naphthyridin-4-yl)oxy]-3-fluorophenyl]-4-hydroxy-2-methyl-5-pyridin-2-ylpyridine-3-carboxamide]	≤ 100	≤ 100	≤ 100	≤ 100
COc1cnc2c(Oc3ccc(NC(=O)c4ccc(C)n(-c5ccc(F)cn5)c4=O)cc3F)ccnc2c1 [Compound 45, N-[3-Fluoro-4-[(7-methoxy-1,5-naphthyridin-4-yl)oxy]phenyl]-1-(5-fluoropyridin-2-yl)-6-methyl-2-oxopyridine-3-carboxamide]	≤ 100	100 to 300	≤ 100	≤ 100
COc1cc2nccc(Oc3ccc(NC(=O)c4c(C)ncc(-c5ccc(F)cn5)c4O)cc3F)c2nc1OC [Compound 68, N-[4-[(6,7-Dimethoxy-1,5-naphthyridin-4-yl)oxy]-3-fluorophenyl]-5-(5-fluoropyridin-2-yl)-4-hydroxy-2-methylpyridine-3-carboxamide]	≤ 100	≤ 100	≤ 100	≤ 100
COc1cnc2c(Oc3ccc(NC(=O)c4ccc(C)n(-c5ncc(F)cc5C)c4=O)cc3F)ccnc2c1 [Compound 52, N-[3-Fluoro-4-[(7-methoxy-1,5-naphthyridin-4-yl)oxy]phenyl]-1-(5-fluoro-3-methylpyridin-2-yl)-6-methyl-2-oxopyridine-3-carboxamide]	≤ 100	300 to 1000	≤ 100	≤ 100
COc1cc2nccc(Oc3ccc(NC(=O)c4ccc(C)n(-c5ccc(F)cn5)c4=O)cc3)c2nc1OC [Compound 44, N-[4-[(6,7-Dimethoxy-1,5-naphthyridin-4-yl)oxy]phenyl]-1-(5-fluoropyridin-2-yl)-6-methyl-2-oxopyridine-3-carboxamide]	≤ 100	≤ 100	≤ 100	≤ 100
Cc1ccc(C(=O)Nc2ccc(Oc3ccnc4cccnc34)c(F)c2)c(=O)n1-c1ccc(F)cn1 [Compound 48, N-[3-Fluoro-4-(1,5-naphthyridin-4-yloxy)phenyl]-1-(5-fluoropyridin-2-yl)-6-methyl-2-oxopyridine-3-carboxamide]	≤ 100	300 to 1000	≤ 100	≤ 100
COc1cc2nccc(Oc3ccc(NC(=O)c4c(C)ccn(-c5ccc(F)cn5)c4=O)cc3F)c2nc1OC [Compound 41, N-[4-[(6,7-Dimethoxy-1,5-naphthyridin-4-yl)oxy]-3-fluorophenyl]-1-(5-fluoropyridin-2-yl)-4-methyl-2-oxopyridine-3-carboxamide]	≤ 100	≤ 100	≤ 100	≤ 100
COc1cc2nccc(Oc3ccc(NC(=O)c4ccc(C)n(-c5ncc(F)cc5C)c4=O)cc3F)c2nc1OC [Compound 51, N-[4-[(6,7-Dimethoxy-1,5-naphthyridin-4-yl)oxy]-3-fluorophenyl]-1-(5-fluoro-3-methylpyridin-2-yl)-6-methyl-2-oxopyridine-3-carboxamide]	≤ 100	100 to 300	≤ 100	≤ 100
COc1cnc2c(Oc3ccc(NC(=O)c4c(C)ncc(-c5ccccn5)c4O)cc3F)ccnc2c1 [Compound 70, N-[3-Fluoro-4-[(7-methoxy-1,5-naphthyridin-4-yl)oxy]phenyl]-4-hydroxy-2-methyl-5-pyridin-2-ylpyridine-3-carboxamide]	≤ 100	≤ 100	≤ 100	≤ 100
COc1ccc2nccc(Oc3ccc(NC(=O)c4ccc(C)n(-c5ncc(F)cc5C)c4=O)cc3F)c2n1 [Compound 53, N-[3-Fluoro-4-[(6-methoxy-1,5-naphthyridin-4-yl)oxy]phenyl]-1-(5-fluoro-3-methylpyridin-2-yl)-6-methyl-2-oxopyridine-3-carboxamide]	≤ 100	300 to 1000	≤ 100	≤ 100
COc1cc2nccc(Oc3ccc(NC(=O)c4cc(C(C)=O)c(C)n(-c5ccc(F)cn5)c4=O)cc3F)c2nc1OC [Compound 59, 5-Acetyl-N-[4-[(6,7-dimethoxy-1,5-naphthyridin-4-yl)oxy]-3-fluorophenyl]-1-(5-fluoropyridin-2-yl)-6-methyl-2-oxopyridine-3-carboxamide]	≤ 100	300 to 1000	≤ 100	≤ 100
COc1cc2nccc(Oc3ccc(NC(=O)c4cccn(-c5ccc(F)cn5)c4=O)cc3F)c2nc1OC [Compound 42, N-[4-[(6,7-Dimethoxy-1,5-naphthyridin-4-yl)oxy]-3-fluorophenyl]-1-(5-fluoropyridin-2-yl)-2-oxopyridine-3-carboxamide]	≤ 100	≤ 100	≤ 100	≤ 100
